“Also recorded” adds a separate entry of the source.
How the values were obtained:
whole blood [1] = assay: Example 3: visual inspection of reaction system with whole blood treatment solutions (hemolysis, adhesion and aggregation of magnetic particles)
Method: Examination was conducted on the assumption that a detergent was added to the reaction system by adding the detergent to a whole blood treatment solution beforehand. The whole blood treatment solutions were prepared by dissolving various detergents in 0.1 M Tris buffer (pH 8.0) containing 1% BSA and 0.15 M NaCl, and it was examined which detergent was suitable for the measurement method of the present invention.
Blood was collected by using an EDTA blood collection tube. Then, HBsAg was added at 1 U/ml to each of the whole blood stored at 4° C. for 3 days and plasma obtained from the whole blood by centrifugation, and a recovery test for HBsAg was performed using the luminescence intensity obtained in the measurement using plasma, which was taken as 100%.
The assay was performed in the same manner as in Example 2. Whole blood and each of the various whole blood treatment solutions were mixed at a ratio of 9:1, plasma was mixed with purified water at a ratio of 9:1, and HBsAg was immediately measured. Further, whole blood was mixed with the aforementioned buffer (0.1 M Tris buffer (pH 8.0) containing 1% BSA and 0.15 M NaCl) without adding a detergent instead of a whole blood treatment solution, and HBsAg was measured in the same manner. Presence or absence of hemolysis in the reaction system, non-specific adhesion of magnetic particles on the reaction vessel (made of polypropylene) and non-specific aggregation of magnetic particles during reaction were confirmed by visual inspection.

whole blood [2] = assay: Example 5: visual inspection of reaction system using fresh whole blood (hemolysis, adhesion, aggregation)
Method: In emergent tests, in particular, it is desirable to perform an assay immediately after blood collection, and erythrocytes in whole blood may be gradually hemolyzed during storage, possibly affecting the measurement. Therefore, examination was performed by using fresh blood immediately after blood collection.

whole blood [3] = assay: Example 4: visual inspection of reaction system, types and concentrations of detergents (hemolysis, adhesion, aggregation); details: heparin whole blood stored overnight at 4° C.
Method: Blood was collected by using a blood collection tube treated with heparin as an anticoagulant. […] Each detergent was added at a concentration of 0.01, 0.1, 0.5, 1 and 10% as a final concentration after the mixing with whole blood. Presence or absence of hemolysis in the reaction system, non-specific adhesion of magnetic particles on the reaction vessel (made of polypropylene) and non-specific aggregation of magnetic particles during reaction were confirmed by visual inspection for each detergent in each reaction system, and recovery ratio with respect to the added amount was determined.

[4] = detergent 1% upon mixing of whole blood, EDTA whole blood stored at 4° C. for 3 days, visual inspection

## C[C@H](CCC(=O)NCCC[N+](C)(C)CCCS(=O)(=O)[O-])[C@H]1CC[C@H]2[C@@H]3[C@H](O)C[C@@H]4C[C@H](O)CC[C@]4(C)[C@H]3C[C@H](O)[C@]12C [CHAPS, 3-{(3-Cholamidopropyl)dimethylammonio}-1-propanesulfonate]
Whole blood [1]; [4]
  Hemolysis: Present

## Polyoxyethylene stearyl ether [Brij 78]
Whole blood [1]; [4]
  Hemolysis: Present

## O=S(=O)([O-])CCC[n+]1ccccc1
Whole blood [1]
  Hemolysis: Absent
Whole blood [2]
  Hemolysis: Absent

## Saponin
Whole blood [1]
  Hemolysis: Present

## Polyoxyethylene octyl phenyl ether [Triton X-100]
Whole blood [1]; [4]
  Hemolysis: Present
Whole blood [3]; detergent 0.01% upon mixing of whole blood
  Hemolysis: Absent
Whole blood [3]; detergent 0.1% upon mixing of whole blood
  Hemolysis: Absent
Whole blood [3]; detergent 0.5% upon mixing of whole blood
  Hemolysis: hemolysis was observed; also recorded: Present
Whole blood [3]; detergent 1% upon mixing of whole blood
  Hemolysis: Present
Whole blood [3]; detergent 10% upon mixing of whole blood
  Hemolysis: Present

Source: patent US7338809B2, “Method for assaying whole blood” (Mitsubishi Kagaku Iatron, Inc., priority 2001, dated 2008)
